Measurements taken from paper PMC9598656, “In Vitro Activity of Robenidine Analogues NCL259 and NCL265 against Gram-Negative Pathogens” (Antibiotics, 2022).
Peptide text beside a SMILES is read from it. * marks the point of attachment. βNA = c1ccc2cc(N*)ccc2c1

Key:
K. oxytoca 13GNB–582 [1] = assay: MIC, broth micro-dilution; type: cell-based; settings: Klebsiella oxytoca, read-out: MIC, Single Drug
Protocol: (§1) MICs for NCL259 and NCL265 (serial two-fold dilutions commencing at 256 µg/mL) were determined (in duplicate) in round bottom 96–well microtitre trays (Sarstedt 82.1582.001), using the broth micro-dilution method recommended by the Clinical and Laboratory Standards Institute (CLSI). We have shown previously that robenidine can chelate calcium ions from cation-adjusted Mueller-Hinton broth, which causes the loss of activity of robenidine. Therefore, LB broth was used in this study. Additionally, considering the low solubility of robenidine and its analogues in aqueous solutions, two-fold serial dilutions of stock solutions of these compounds were prepared in 100% DMSO [21]. The MIC for ampicillin against each isolate was determined for each test to serve as an internal quality control. The MICs of isolates were determined by visual reading and using an EnSpire Multimode Plate Reader 2300 at A600nm.
(§2) MICs of NCL259 or NCL265 in the presence of the efflux pump inhibitor, PAβN were determined using a checkerboard assay. […] Briefly, a two-fold serial dilution of each antimicrobial solution was prepared in its appropriate solvent (e.g., DMSO for robenidine analogues and Milli-Q water for PAβN), and 1 μL of each dilution was added from wells 12 to 3 (12.8–0.25 μg/mL for robenidine analogues, and 32–2 μg/mL for PAβN). Thereafter, 89 μL of LB broth was added to each well followed by the addition of 10 μL of bacterial suspension (1–5 × 10^6 CFU/mL) to each well. In this manner, the final concentration of DMSO in each well was 1%. The plate was subsequently incubated at 37 °C for 24 h. The resazurin assay was used for assessment of drug susceptibility of NCL259 and NCL265 (Supplementary Table S1–S6). The same method was also used to test the MICs of NCL259 or NCL265 in the presence of PMB against a range of Gram-negative reference strains (E. coli ATCC 25922, E. coli ATCC 10763, P. aeruginosa PAO1, P. aeruginosa ATCC 27853, A. baumannii ATCC 12457, A. baumannii ATCC 19606, K. pneumoniae ATCC 4352 and K. pneumoniae ATCC 33495). Stock solutions were prepared prior to use (25.6–0.25 mg/mL for robenidine analogues; 12.8–0.25 mg/mL for PMB). The interaction of two antibiotics was calculated as the fractional inhibitory concentration index (FICI) using the following formula:(1) FICI=MICA in combination/MICA alone+MICB in combination/MICB alone where A is NCL259 or NCL265 and B is PAβN or PMB. According to FICI calculations, the interaction between two compounds were interpreted as follows: synergistic (FICI ≤ 0.5); additive or partially synergistic (0.5 < FICI ≤ 1); indifferent (1 < FICI ≤ 4); and antagonistic (FICI > 4), as described previously. The dose reduction index (DRI) was used to describe the difference between the effective doses of NCL259 or NCL265 in combination with PMB or PAβN in comparison to their individual doses, using the following formula:(2) DRI=MICA alone/MICA in combination

K. pneumoniae 13GNB–429 [2] = assay: MIC, broth micro-dilution; type: cell-based; settings: Klebsiella pneumoniae, read-out: MIC, Single Drug
Protocol: as §1, §2

K. pneumoniae 13GNB–550 [3] = assay: MIC, broth micro-dilution; type: cell-based; settings: Klebsiella pneumoniae, read-out: MIC, Single Drug
Protocol: as §1, §2

K. pneumoniae 13GNB–429 [4] = assay: Checkerboard assay with PAβN; type: cell-based, Klebsiella pneumoniae; settings: for concentration at the marked interaction: resazurin
Protocol: as §2
(§3) Evaluation of DRI is important clinically because it can allow the dose of a potentially toxic drug to be lowered in combination with another compound without reducing the drug’s efficacy. A DRI higher than 1 is viewed as beneficial.

K. pneumoniae 13GNB–550 [5] = assay: Checkerboard assay with PAβN; type: cell-based, Klebsiella pneumoniae; settings: for concentration at the marked interaction: resazurin
Protocol: as §2, §3

K. oxytoca 13GNB–582 [6] = assay: Checkerboard assay with PAβN; type: cell-based; settings: for concentration at the marked interaction: resazurin
Protocol: as §2, §3

## NC(N)=NCCC[C@H](NC(=O)[C@@H](N)Cc1ccccc1)C(=O)Nc1ccc2ccccc2c1 [PAβN, phenylalanine-arginine-beta-naphthylamide, reference compound] (H-Phe-Arg-βNA)
K. oxytoca 13GNB–582 [1]
  MIC: > 32 µg/mL
K. pneumoniae 13GNB–429 [2]
  MIC: > 32 µg/mL
K. pneumoniae 13GNB–550 [3]
  MIC: > 32 µg/mL
K. pneumoniae 13GNB–429 [4]; K. pneumoniae 13GNB–429
  DRI PAβN:NCL259: 4
  DRI PAβN:NCL265: 2
K. pneumoniae 13GNB–429 [4]; K. pneumoniae 13GNB–429, PAβN + NCL259
  MIC, Combination: 16 µg/mL
K. pneumoniae 13GNB–429 [4]; K. pneumoniae 13GNB–429, PAβN + NCL265
  MIC, Combination: 32 µg/mL
K. pneumoniae 13GNB–429 [4]; Table S1, NCL259 + PAβN, replicate 1
  concentration at the marked interaction: 8 µg/mL
K. pneumoniae 13GNB–429 [4]; Table S1, NCL259 + PAβN, replicate 2
  concentration at the marked interaction: 8 µg/mL
K. pneumoniae 13GNB–429 [4]; Table S4, NCL265 + PAβN, replicate 1
  concentration at the marked interaction: 8 µg/mL
K. pneumoniae 13GNB–429 [4]; Table S4, NCL265 + PAβN, replicate 2
  concentration at the marked interaction: 4 µg/mL
K. pneumoniae 13GNB–550 [5]; K. pneumoniae 13GNB–550
  DRI PAβN:NCL259: 2
  DRI PAβN:NCL265: 2
K. pneumoniae 13GNB–550 [5]; K. pneumoniae 13GNB–550, PAβN + NCL259
  MIC, Combination: 32 µg/mL
K. pneumoniae 13GNB–550 [5]; K. pneumoniae 13GNB–550, PAβN + NCL265
  MIC, Combination: 32 µg/mL
K. pneumoniae 13GNB–550 [5]; Table S2, NCL259 + PAβN, replicate 1
  concentration at the marked interaction: 16 µg/mL
K. pneumoniae 13GNB–550 [5]; Table S2, NCL259 + PAβN, replicate 2
  concentration at the marked interaction: 8 µg/mL
K. pneumoniae 13GNB–550 [5]; Table S5, NCL265 + PAβN, replicate 1
  concentration at the marked interaction: 8 µg/mL
K. pneumoniae 13GNB–550 [5]; Table S5, NCL265 + PAβN, replicate 2
  concentration at the marked interaction: 8 µg/mL
K. oxytoca 13GNB–582 [6]; K. oxytoca 13GNB–582
  DRI PAβN:NCL259: 4
  DRI PAβN:NCL265: 2
K. oxytoca 13GNB–582 [6]; K. oxytoca 13GNB–582, PAβN + NCL259
  MIC, Combination: 16 µg/mL
K. oxytoca 13GNB–582 [6]; K. oxytoca 13GNB–582, PAβN + NCL265
  MIC, Combination: 32 µg/mL
K. oxytoca 13GNB–582 [6]; Table S3, NCL259 + PAβN, replicate 1
  concentration at the marked interaction: 8 µg/mL
K. oxytoca 13GNB–582 [6]; Table S3, NCL259 + PAβN, replicate 2
  concentration at the marked interaction: 8 µg/mL
K. oxytoca 13GNB–582 [6]; Table S6, NCL265 + PAβN, replicate 1
  concentration at the marked interaction: 8 µg/mL
K. oxytoca 13GNB–582 [6]; Table S6, NCL265 + PAβN, replicate 2
  concentration at the marked interaction: 8 µg/mL
